In patent publication US8729258B2, “Luminescent macrocyclic lanthanide complexes” (The Regents of the University of California, priority 2006, dated 2014):

Tests used:
[1] = Kinetic stability of Tb complexes in various media at room temperature; conditions: 5 nM Tb-complex, various media incl. 1% acetic acid and 1 mM EDTA, 0.05% Tween-80, room temperature
Procedure: In order to investigate the stability of macrocyclic ligands further, the stabilities of different Tb-complexes were determined using a variety of different media, including 1% acetic acid and 1 mM EDTA. […] Each stock solution was then diluted 200× into different test solutions in polypropylene microcentrifuge tubes to a final concentration of 5 nM Tb-complex. Each test solution also contained 0.05% Tween-80. The test solutions were allowed to incubate at room temperature. Samples were taken at indicated time points, evaluated in triplicate and luminescence was recorded using standard time-resolved luminescence settings and 340 nm and 490 excitation and emission filters, respectively.

[2] = target: streptavidin (Streptomyces avidinii, UniProt P22629); assay: Non-specific interaction with protein (streptavidin), consecutive G50 gel filtration spin columns; assay type: binding; conditions: second and third consecutive gel filtration spin columns after conjugation of activated ester to streptavidin
Procedure: It was therefore important to determine the tendency of the novel ligands to non-specifically interact with proteins. Sulfo-NHS ester and NHS ester derivatives of compound 5 were synthesized and conjugated to streptavidin. For comparison, the NHS ester of ligand 2 was also conjugated to streptavidin. Streptavidin was equilibrated in carbonate buffer, pH 9, at a concentration of approximately 130 μM. A DMF solution of the activated esters of each ligand was added to the protein at a final concentration of approximately 1 mM. The mixtures were allowed to incubate at 4° C. for 1 h. The metal is added either before or after conjugation of the ligand to the protein. Non-conjugated ligand was separated from conjugated protein using a G50 gel filtration centrifugal spin column technique (Penefsky, H. S, Methods Enzymol 1979, 56:527-30). This technique dilutes protein solutions to a lesser extent than conventional gel filtration techniques. Consecutive spin columns were run on a single protein sample solution to evaluate the extent of non-specific absorption of ligand. Following a single gel filtration separation, most of the excess ligand is removed and left at the top of the gel bed. A second spin column treatment should leave no further ligand at the top of the second column unless non-covalent association of the ligand with the protein occurs.

streptavidin, sequence (P22629 25-183): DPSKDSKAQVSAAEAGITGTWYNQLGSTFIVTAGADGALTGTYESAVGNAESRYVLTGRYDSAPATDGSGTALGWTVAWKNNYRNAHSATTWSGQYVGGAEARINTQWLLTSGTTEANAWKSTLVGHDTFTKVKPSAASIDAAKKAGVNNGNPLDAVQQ

| Compound | stability of terbium complex compared to non-restrained ligand (1) [1] | residual luminescence of ligand left at the top of the gel bed [2] |
| --- | --- | --- |
| O=C(O)CCCC(=O)NCCCCC1CN2CCNC(=O)c3cccc(c3O)C(=O)NCCN(CCNC(=O)c3cccc(c3O)C(=O)N1)CCN1CCNC(=O)c3cccc(c3O)C(=O)NCCN(CCNC(=O)c3cccc(c3O)C(=O)NCC1)CC2 (stereo not drawn) [compound 5a, GlutarLysBH(2,2)IAM] | significant increase in stability | – |
| CNC(=O)c1cc(C(=O)NC)c(O)c(C(=O)NCCN(CCNC(=O)c2cc(C(=O)NC)cc(C(=O)NC)c2O)CCN(CCNC(=O)c2cc(C(=O)NC)cc(C(=O)NC)c2O)CCNC(=O)c2cc(C(=O)NCCC(=O)O)cc(C(=O)NC)c2O)c1 [compound 2, reference compound] | – | high degree of residual luminescence |
| NCCN1CCNC(=O)c2cccc(c2O)C(=O)NCCN(CCNC(=O)c2cccc(C(N)=O)c2O)CCN2CCNC(=O)c3cccc(c3O)C(=O)NCCN(CCNC(=O)c3cccc(c3O)C(=O)NCC2)CC1 [compound 3] | significant increase in stability | – |
